How the values were obtained:
LNCaP = assay: Inhibition of cells growth by colorimetric assay (SRB); settings: Homo sapiens, LNCaP, 48 h; for GI50: read-out: LNCAP GI50; for CC50: read-out: LNCAP LC50; for IC (TGI): read-out: LNCAP TGI
Outline: (§1)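 Colorimetric SRB read (490 nm) on triplicate wells after 48 h at 37 °C, 5% CO2. Dose range 10 to 10^−8 μg/ml; 5×10^3 cells/well pre-attached 18 h.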

HeLa = assay: as above; settings: Homo sapiens, HeLa, 48 h; for GI50: read-out: HELA GI50; for CC50: read-out: HELA LC50; for IC (TGI): read-out: HELA TGI
Outline: as §1

LoVo-Dox = assay: as above; settings: Homo sapiens, 48 h; for GI50: read-out: LOVO-DOX GI50; for CC50: read-out: LOVO-DOX LC50; for IC (TGI): read-out: LOVO-DOX TGI
Outline: as §1

K-562 = assay: as above; settings: Homo sapiens, K562, 48 h; for GI50: read-out: K562 GI50; for CC50: read-out: K562 LC50; for IC (TGI): read-out: K562 TGI
Outline: as §1

IGROV-ET = assay: as above; settings: Homo sapiens, 48 h; for GI50: read-out: IGROV-ET GI50; for CC50: read-out: IGROV-ET LC50; for IC (TGI): read-out: IGROV-ET TGI
Outline: as §1

SK-MEL-28 = assay: as above; settings: Homo sapiens, SK-MEL-28, 48 h; for GI50: read-out: MEL-28 GI50; for CC50: read-out: MEL-28 LC50; for IC (TGI): read-out: MEL-28 TGI
Outline: as §1

DU-145 = assay: as above; settings: Homo sapiens, DU-145, 48 h; for GI50: read-out: DU145 GI50; for CC50: read-out: DU145 LC50; for IC (TGI): read-out: DU145 TGI
Outline: as §1

IGROV-1 = assay: as above; settings: Homo sapiens, IGROV-1, 48 h; for GI50: read-out: IGROV GI50; for CC50: read-out: IGROV LC50; for IC (TGI): read-out: IGROV TGI
Outline: as §1

SK-BR-3 = assay: as above; settings: Homo sapiens, SK-BR-3, 48 h; for GI50: read-out: SK-BR3 GI50; for CC50: read-out: SK-BR3 LC50; for IC (TGI): read-out: SK-BR3 TGI
Outline: as §1

PANC-1 = assay: as above; settings: Homo sapiens, PANC-1, 48 h; for GI50: read-out: PANC-1 GI50; for CC50: read-out: PANC-1 LC50; for IC (TGI): read-out: PANC-1 TGI
Outline: as §1

HeLa-APL = assay: as above; settings: Homo sapiens, 48 h; for GI50: read-out: HELA-APL GI50; for CC50: read-out: HELA-APL LC50; for IC (TGI): read-out: HELA-APL TGI
Outline: as §1

HT-29 = assay: cells; settings: Homo sapiens, HT-29, 48 h; for GI50: read-out: HT29 GI50; for CC50: read-out: HT29 LC50; for IC (TGI): read-out: HT29 TGI
Outline: as §1

LoVo = assay: cells; settings: Homo sapiens, LoVo, 48 h; for GI50: read-out: LOVO GI50; for CC50: read-out: LOVO LC50; for IC (TGI): read-out: LOVO TGI
Outline: as §1

A-549 = assay: cells; settings: Homo sapiens, A549, 48 h; for GI50: read-out: A549 GI50; for CC50: read-out: A549 LC50; for IC (TGI): read-out: A549 TGI
Outline: as §1

Molecule `C=CCN1[C@@H]2c3c(cc(C)c(OC)c3O)C[C@H]1[C@H](O)N1C2[C@@H]2SCC(NC(C)=O)C(=O)OC[C@H]1c1c3c(c(C)c(OC(C)=O)c12)OCO3` (stereo partly drawn) [compound 41] has a GI50 (LNCaP) of 0.95 nM, a CC50 (LNCaP) of 92.8 nM and an IC (TGI) (LNCaP) of 31.4 nM. For the same molecule, the GI50 (HeLa) was 28.2 nM, the CC50 (HeLa) was 120 nM and the IC (TGI) (HeLa) was 58.1 nM. The GI50 (LoVo-Dox) was 270 nM, the CC50 (LoVo-Dox) was 14700 nM and the IC (TGI) (LoVo-Dox) was 1180 nM. For the same molecule, the GI50 (K-562) was 20.4 nM, the CC50 (K-562) was 125 nM and the IC (TGI) (K-562) was 50.5 nM. It also gave a GI50 (IGROV-ET) of 41.8 nM, a CC50 (IGROV-ET) of 14700 nM and an IC (TGI) (IGROV-ET) of 87.1 nM. For the same molecule, the GI50 (SK-MEL-28) was 33.7 nM, the CC50 (SK-MEL-28) was 123 nM and the IC (TGI) (SK-MEL-28) was 64.5 nM. The GI50 (DU-145) was 45.3 nM, the CC50 (DU-145) was 274 nM and the IC (TGI) (DU-145) was 75.5 nM. It also gave a GI50 (IGROV-1) of 15.7 nM, a CC50 (IGROV-1) of 121 nM and an IC (TGI) (IGROV-1) of 43.7 nM. For the same molecule, the GI50 (SK-BR-3) was 32.3 nM, the CC50 (SK-BR-3) was 352 nM and the IC (TGI) (SK-BR-3) was 72.2 nM. It also gave a GI50 (PANC-1) of 37.7 nM, a CC50 (PANC-1) of 14700 nM and an IC (TGI) (PANC-1) of 100 nM. For the same molecule, the GI50 (HeLa-APL) was 30.1 nM, the CC50 (HeLa-APL) was 132 nM and the IC (TGI) (HeLa-APL) was 63.1 nM. The GI50 (HT-29) was 42.7 nM, the CC50 (HT-29) was 14700 nM and the IC (TGI) (HT-29) was 120 nM. For the same molecule, the GI50 (LoVo) was 37.8 nM, the CC50 (LoVo) was 14700 nM and the IC (TGI) (LoVo) was 94 nM. For the same molecule, the GI50 (A-549) was 43.1 nM, the CC50 (A-549) was 125 nM and the IC (TGI) (A-549) was 73.5 nM.
`CCCCCCCC(=O)Oc1c(C)c2c(c3c1[C@H]1SC[C@]4(NCCc5cc(O)c(OC)cc54)C(=O)OC[C@@H]3N3C1[C@@H]1N[C@@H](Cc4cc(C)c(OC)c(O)c41)[C@@H]3O)OCO2` (stereo partly drawn) [compound 54] gave a GI50 (LNCaP) of 7.42 nM, a CC50 (LNCaP) of 109 nM and an IC (TGI) (LNCaP) of 29.3 nM. For the same molecule, the GI50 (HeLa) was 21.9 nM, the CC50 (HeLa) was 376 nM and the IC (TGI) (HeLa) was 64.1 nM. It also gave a GI50 (LoVo-Dox) of 338 nM, a CC50 (LoVo-Dox) of 12000 nM and an IC (TGI) (LoVo-Dox) of 12000 nM. It also gave a GI50 (K-562) of 1.88 nM, a CC50 (K-562) of 2700 nM and an IC (TGI) (K-562) of 5.18 nM. For the same molecule, the GI50 (IGROV-ET) was 37 nM, the CC50 (IGROV-ET) was 12000 nM and the IC (TGI) (IGROV-ET) was 120 nM. For the same molecule, the GI50 (SK-MEL-28) was 15.5 nM, the CC50 (SK-MEL-28) was 83.9 nM and the IC (TGI) (SK-MEL-28) was 36.1 nM. For the same molecule, the GI50 (DU-145) was 3.76 nM, the CC50 (DU-145) was 12000 nM and the IC (TGI) (DU-145) was 22 nM. It also gave a GI50 (IGROV-1) of 6.56 nM, a CC50 (IGROV-1) of 3370 nM and an IC (TGI) (IGROV-1) of 39.4 nM. It also gave a GI50 (SK-BR-3) of 12.7 nM, a CC50 (SK-BR-3) of 12000 nM and an IC (TGI) (SK-BR-3) of 154 nM. For the same molecule, the GI50 (PANC-1) was 23 nM, the CC50 (PANC-1) was 5310 nM and the IC (TGI) (PANC-1) was 64.8 nM. It also gave a GI50 (HeLa-APL) of 13.3 nM, a CC50 (HeLa-APL) of 459 nM and an IC (TGI) (HeLa-APL) of 143 nM. For the same molecule, the GI50 (HT-29) was 29.9 nM, the CC50 (HT-29) was 12000 nM and the IC (TGI) (HT-29) was 123 nM. For the same molecule, the GI50 (LoVo) was 3.85 nM, the CC50 (LoVo) was 12000 nM and the IC (TGI) (LoVo) was 14.4 nM. It also gave a GI50 (A-549) of 20.2 nM, a CC50 (A-549) of 636 nM and an IC (TGI) (A-549) of 66.3 nM.
